Legend:
[1] = AUC in Sprague-Dawley rat plasma at 10 mg/kg, po by LC-MS/MS analysis; assay type: ADME, organism-based; parameters: dose 10 mg/kg, route oral; conditions: Sprague-Dawley, plasma
[2] = Oral bioavailability in Sprague-Dawley rat plasma at 10 mg/kg by LC-MS/MS analysis; assay type: ADME, organism-based; conditions: Sprague-Dawley, plasma
[3] = Clearance in Sprague-Dawley rat plasma at 1 mg/kg, iv and 10 mg/kg, po by LC-MS/MS analysis; assay type: ADME, organism-based
Cytochrome P450 2C19 = Cytochrome P450 2C19 (Homo sapiens, UniProt P33261); assay: Inhibition of CYP2C19; assay type: ADME
Rattus norvegicus [4] = assay: Toxicity in rat assessed as mortality at 800 mg/kg administered for 7 days; assay type: organism-based; parameters: dose 800 mg/kg; conditions: in vivo, 168 h
Cytochrome P450 2C9 = Cytochrome P450 2C9 (Homo sapiens, UniProt P11712); assay: Inhibition of CYP2C9; assay type: ADME
Rattus norvegicus [5] = assay: Toxicity in rat at 200 mg/kg administered for 7 days; assay type: organism-based; parameters: dose 200 mg/kg; conditions: in vivo, 168 h
Rattus norvegicus [6] = assay: Toxicity in rat assessed as diarrhea at 800 mg/kg administered for 7 days; assay type: organism-based; parameters: dose 800 mg/kg; conditions: in vivo, 168 h
Cytochrome P450 2D6 [7] = target: T1, Cytochrome P450 2D6 (Homo sapiens, UniProt P10635); assay: Inhibition of CYP2D6; assay type: ADME
[8] = AUC in po dosed CD-1 mouse by LC-MS/MS analysis; assay type: ADME, organism-based; conditions: plasma
Cytochrome P450 3A4 [9] = target: T2, Cytochrome P450 3A4 (Homo sapiens, UniProt P08684); assay: Inhibition of CYP3A4; assay type: ADME
[10] = target: T3, Mast/stem cell growth factor receptor Kit (Homo sapiens, UniProt P10721); assay: Binding affinity to KIT expressed in HEK-293 cells; assay type: cell-based, HEK293
[11] = target: T3, Mast/stem cell growth factor receptor Kit; assay: Inhibition of KIT phosphorylation in human H526 cells; assay type: cell-based
[12] = Antitumor activity against mouse M-NFS-60 cells xenografted in CD-1 nude mouse assessed as inhibition of tumor growth at 30 mg/kg, po measured after 4 of tumor implantation; assay type: functional; conditions: read-out: TGI
[13] = Antitumor activity against mouse M-NFS-60 cells xenografted in CD-1 nude mouse assessed as inhibition of tumor growth at 100 mg/kg, po measured after 4 of tumor implantation; assay type: functional; conditions: read-out: TGI
Cytochrome P450 1A2 [14] = target: T4, Cytochrome P450 1A2 (Homo sapiens, UniProt P05177); assay: Inhibition of CYP1A2; assay type: ADME
T4 sequence (P05177 whole entry): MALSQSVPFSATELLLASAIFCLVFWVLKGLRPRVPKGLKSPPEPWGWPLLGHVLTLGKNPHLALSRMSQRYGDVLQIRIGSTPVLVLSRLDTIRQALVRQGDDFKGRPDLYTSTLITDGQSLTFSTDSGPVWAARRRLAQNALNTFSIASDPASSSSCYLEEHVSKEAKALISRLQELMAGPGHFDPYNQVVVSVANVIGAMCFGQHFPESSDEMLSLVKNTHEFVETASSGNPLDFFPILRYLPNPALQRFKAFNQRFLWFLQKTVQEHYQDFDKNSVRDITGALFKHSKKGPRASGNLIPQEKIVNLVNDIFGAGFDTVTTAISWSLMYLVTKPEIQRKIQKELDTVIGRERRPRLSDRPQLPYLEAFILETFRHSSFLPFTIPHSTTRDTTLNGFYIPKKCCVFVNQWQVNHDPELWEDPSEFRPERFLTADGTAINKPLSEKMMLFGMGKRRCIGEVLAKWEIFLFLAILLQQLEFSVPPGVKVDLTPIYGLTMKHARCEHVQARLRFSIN

Rattus norvegicus [15] = assay: Toxicity in rat assessed as effect on body weight at 800 mg/kg administered for 7 days; assay type: organism-based; parameters: dose 800 mg/kg; conditions: in vivo, 168 h
Mus musculus [16] = assay: Toxicity in human MV4-11 cells xenografted in SCID mouse assessed as change in body weight at 0.3 to 30 mg/kg foe 2 weeks; assay type: organism-based; parameters: dose 0.3-30 mg/kg; conditions: in vivo, 336 h
Mus musculus [17] = assay: Toxicity in collagen-induced arthritis mouse assessed as body weight and body condition at 3 to 30 mg/kg for 15 days; assay type: organism-based; parameters: dose 3-30 mg/kg; conditions: in vivo, 360 h
[18] = target: T5, Receptor-type tyrosine-protein kinase FLT3 (Homo sapiens, UniProt P36888); assay: Inhibition of FLT3 phosphorylation in human MV4-11 cells; assay type: cell-based
T5 sequence (P36888 whole entry): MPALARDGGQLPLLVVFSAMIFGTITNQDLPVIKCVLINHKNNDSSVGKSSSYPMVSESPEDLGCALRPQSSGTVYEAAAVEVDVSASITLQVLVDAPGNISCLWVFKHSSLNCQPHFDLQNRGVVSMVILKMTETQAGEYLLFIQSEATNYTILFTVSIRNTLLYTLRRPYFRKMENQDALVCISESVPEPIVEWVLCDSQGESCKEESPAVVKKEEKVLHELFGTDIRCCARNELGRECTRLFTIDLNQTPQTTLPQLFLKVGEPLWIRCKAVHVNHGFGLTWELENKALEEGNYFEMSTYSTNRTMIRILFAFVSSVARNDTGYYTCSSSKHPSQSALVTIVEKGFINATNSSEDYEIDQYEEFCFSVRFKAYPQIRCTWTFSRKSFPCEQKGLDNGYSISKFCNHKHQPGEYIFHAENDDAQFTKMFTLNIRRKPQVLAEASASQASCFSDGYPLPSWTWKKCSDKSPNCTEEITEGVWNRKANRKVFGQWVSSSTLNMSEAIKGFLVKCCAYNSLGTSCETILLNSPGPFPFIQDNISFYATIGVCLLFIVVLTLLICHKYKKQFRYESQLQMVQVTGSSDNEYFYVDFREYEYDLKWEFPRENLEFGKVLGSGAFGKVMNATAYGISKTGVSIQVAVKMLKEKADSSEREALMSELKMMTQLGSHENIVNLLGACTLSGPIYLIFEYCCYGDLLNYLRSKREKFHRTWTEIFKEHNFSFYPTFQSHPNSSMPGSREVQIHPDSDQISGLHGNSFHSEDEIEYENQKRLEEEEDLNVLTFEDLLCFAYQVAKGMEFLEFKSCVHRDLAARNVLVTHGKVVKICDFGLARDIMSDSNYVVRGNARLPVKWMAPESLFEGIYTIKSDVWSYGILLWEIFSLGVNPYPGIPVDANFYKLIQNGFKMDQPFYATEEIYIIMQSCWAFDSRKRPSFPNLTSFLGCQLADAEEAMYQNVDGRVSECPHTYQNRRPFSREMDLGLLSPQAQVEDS

Cytochrome P450 3A4 [19] = target: T2, Cytochrome P450 3A4; assay: Induction of CYP3A4 at 3 to 30 uM; assay type: ADME
[20] = target: T6, Macrophage colony-stimulating factor 1 receptor (Homo sapiens, UniProt P07333); assay: Inhibition of M-CSF-induced […] -fussed CSF1R phosphorylation expressed in HEK293 cells after 2 hrs by sandwich ELISA; assay type: cell-based
Cytochrome P450 1A2 [21] = target: T4, Cytochrome P450 1A2; assay: Induction of CYP1A2 at 3 to 30 uM; assay type: ADME
[22] = target: T7, Platelet-derived growth factor receptor beta (Homo sapiens, UniProt P09619); assay: Inhibition of PDGFRbeta phosphorylation in human MG63 cells; assay type: cell-based, MG-63
[23] = target: T5, Receptor-type tyrosine-protein kinase FLT3; assay: Binding affinity to FLT3 expressed in HEK-293 cells after 1 hr; assay type: cell-based, HEK293
Cytochrome P450 2D6 [24] = target: T1, Cytochrome P450 2D6; assay: Induction of CYP2D6 at 3 to 30 uM; assay type: ADME
[25] = target: T6, Macrophage colony-stimulating factor 1 receptor; assay: Binding affinity to CSF1R expressed in HEK-293 cells after 1 hr; assay type: cell-based, HEK293
[26] = Antitumor activity against mouse M-NFS-60 cells xenografted in CD-1 nude mouse assessed as inhibition of tumor growth at 3 mg/kg, po measured after 4 of tumor implantation; assay type: functional; conditions: read-out: TGI
[27] = target: Platelet-derived growth factor receptor alpha (Homo sapiens, UniProt P16234); assay: Binding affinity to PDGFRalpha expressed in HEK-293 cells; assay type: cell-based, HEK293
[28] = Antitumor activity against mouse M-NFS-60 cells xenografted in CD-1 nude mouse assessed as inhibition of tumor growth at 10 mg/kg, po measured after 4 of tumor implantation; assay type: functional; conditions: read-out: TGI
[29] = target: T7, Platelet-derived growth factor receptor beta; assay: Binding affinity to PDGFRbeta expressed in HEK-293 cells; assay type: cell-based, HEK293
Target sequence in this assay (P09619 whole entry): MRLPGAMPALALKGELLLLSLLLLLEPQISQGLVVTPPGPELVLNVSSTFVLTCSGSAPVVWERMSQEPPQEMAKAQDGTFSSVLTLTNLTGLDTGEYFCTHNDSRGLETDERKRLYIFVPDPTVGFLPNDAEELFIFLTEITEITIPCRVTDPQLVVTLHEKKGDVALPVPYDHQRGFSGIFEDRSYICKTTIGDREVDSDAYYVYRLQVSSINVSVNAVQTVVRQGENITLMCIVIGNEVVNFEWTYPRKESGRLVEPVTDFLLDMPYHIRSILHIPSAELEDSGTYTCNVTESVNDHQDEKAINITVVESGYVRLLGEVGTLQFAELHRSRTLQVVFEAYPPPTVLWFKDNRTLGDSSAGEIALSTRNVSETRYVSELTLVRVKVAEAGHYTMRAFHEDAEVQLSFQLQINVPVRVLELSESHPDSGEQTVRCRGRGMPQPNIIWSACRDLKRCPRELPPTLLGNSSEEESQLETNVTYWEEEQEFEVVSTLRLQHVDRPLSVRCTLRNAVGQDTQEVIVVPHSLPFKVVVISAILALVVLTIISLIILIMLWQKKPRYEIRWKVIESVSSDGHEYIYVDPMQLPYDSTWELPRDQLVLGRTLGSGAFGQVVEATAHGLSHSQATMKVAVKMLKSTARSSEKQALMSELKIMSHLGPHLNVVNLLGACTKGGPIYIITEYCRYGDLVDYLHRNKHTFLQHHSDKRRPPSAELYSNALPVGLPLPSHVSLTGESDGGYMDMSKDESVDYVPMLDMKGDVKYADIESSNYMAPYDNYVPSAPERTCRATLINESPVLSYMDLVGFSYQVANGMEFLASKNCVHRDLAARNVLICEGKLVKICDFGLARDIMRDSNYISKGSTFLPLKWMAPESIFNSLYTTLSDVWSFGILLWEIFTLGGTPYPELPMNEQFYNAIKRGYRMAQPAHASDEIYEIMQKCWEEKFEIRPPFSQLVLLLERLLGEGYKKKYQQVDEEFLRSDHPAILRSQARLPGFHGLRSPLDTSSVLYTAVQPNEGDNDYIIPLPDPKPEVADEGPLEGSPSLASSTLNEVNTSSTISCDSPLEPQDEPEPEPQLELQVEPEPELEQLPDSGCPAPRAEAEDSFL

T3 sequence (P10721 whole entry): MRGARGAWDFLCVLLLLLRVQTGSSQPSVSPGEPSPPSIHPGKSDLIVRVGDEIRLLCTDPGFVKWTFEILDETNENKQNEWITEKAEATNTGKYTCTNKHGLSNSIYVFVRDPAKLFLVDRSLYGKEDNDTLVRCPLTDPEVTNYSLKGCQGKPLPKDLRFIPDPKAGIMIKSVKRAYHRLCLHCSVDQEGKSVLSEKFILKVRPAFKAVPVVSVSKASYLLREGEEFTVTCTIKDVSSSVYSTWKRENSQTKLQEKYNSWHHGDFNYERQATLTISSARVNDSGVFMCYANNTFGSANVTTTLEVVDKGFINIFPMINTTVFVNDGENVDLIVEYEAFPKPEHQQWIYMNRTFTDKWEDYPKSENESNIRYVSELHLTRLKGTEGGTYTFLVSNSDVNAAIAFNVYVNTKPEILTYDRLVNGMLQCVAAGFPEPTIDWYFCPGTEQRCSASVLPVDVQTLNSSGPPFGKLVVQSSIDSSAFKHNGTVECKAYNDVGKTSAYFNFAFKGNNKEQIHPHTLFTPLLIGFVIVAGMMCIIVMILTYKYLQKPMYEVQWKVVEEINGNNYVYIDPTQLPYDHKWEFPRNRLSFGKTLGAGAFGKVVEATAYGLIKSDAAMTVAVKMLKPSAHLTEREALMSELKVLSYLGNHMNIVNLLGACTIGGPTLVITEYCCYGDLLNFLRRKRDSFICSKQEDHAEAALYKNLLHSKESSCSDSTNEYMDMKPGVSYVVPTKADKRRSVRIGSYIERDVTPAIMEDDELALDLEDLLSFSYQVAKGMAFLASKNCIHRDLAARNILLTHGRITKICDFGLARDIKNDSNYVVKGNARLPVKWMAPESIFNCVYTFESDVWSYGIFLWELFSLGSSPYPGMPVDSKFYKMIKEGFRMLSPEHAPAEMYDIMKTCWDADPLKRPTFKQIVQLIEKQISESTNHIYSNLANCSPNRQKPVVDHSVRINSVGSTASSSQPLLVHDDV
T1 sequence (P10635 whole entry): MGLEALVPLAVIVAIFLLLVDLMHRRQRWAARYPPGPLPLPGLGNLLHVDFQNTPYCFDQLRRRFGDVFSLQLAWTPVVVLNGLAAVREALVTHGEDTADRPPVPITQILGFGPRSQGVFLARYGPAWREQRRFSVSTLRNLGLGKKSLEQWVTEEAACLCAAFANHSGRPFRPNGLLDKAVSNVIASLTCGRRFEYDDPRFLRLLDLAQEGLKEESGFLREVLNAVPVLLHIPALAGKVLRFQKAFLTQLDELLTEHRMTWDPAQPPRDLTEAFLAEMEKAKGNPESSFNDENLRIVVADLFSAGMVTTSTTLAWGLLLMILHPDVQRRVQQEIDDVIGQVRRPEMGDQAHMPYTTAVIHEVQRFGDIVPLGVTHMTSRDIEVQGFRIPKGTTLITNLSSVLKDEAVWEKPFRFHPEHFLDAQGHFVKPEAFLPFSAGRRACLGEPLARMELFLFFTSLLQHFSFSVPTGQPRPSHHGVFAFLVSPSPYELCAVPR
T6 sequence (P07333 whole entry): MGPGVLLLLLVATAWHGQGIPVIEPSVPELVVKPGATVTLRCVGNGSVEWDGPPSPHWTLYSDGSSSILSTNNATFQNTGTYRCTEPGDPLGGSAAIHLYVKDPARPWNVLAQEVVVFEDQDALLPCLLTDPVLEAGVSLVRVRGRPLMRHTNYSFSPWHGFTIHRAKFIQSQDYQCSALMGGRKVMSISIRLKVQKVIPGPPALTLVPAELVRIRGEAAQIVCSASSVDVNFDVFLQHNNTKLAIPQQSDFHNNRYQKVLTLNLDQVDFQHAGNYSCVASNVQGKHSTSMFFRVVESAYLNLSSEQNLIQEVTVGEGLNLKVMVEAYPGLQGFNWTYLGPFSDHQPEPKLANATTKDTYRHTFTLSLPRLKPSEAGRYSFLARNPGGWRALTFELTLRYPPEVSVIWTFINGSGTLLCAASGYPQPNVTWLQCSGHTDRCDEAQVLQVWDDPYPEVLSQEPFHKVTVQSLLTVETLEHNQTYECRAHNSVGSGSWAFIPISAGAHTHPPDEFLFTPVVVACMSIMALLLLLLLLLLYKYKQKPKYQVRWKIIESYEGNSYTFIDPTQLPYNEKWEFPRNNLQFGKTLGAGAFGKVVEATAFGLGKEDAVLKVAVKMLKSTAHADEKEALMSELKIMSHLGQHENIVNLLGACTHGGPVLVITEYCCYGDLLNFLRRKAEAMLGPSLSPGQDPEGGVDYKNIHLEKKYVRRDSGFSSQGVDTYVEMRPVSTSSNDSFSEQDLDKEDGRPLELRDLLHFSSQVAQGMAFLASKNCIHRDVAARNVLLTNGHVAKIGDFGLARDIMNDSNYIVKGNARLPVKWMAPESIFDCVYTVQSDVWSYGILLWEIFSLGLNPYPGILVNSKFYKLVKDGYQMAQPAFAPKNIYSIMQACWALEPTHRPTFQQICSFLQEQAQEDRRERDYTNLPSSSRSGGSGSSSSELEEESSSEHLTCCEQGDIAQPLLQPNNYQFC
Sequence of Cytochrome P450 2C19 (P33261 whole entry): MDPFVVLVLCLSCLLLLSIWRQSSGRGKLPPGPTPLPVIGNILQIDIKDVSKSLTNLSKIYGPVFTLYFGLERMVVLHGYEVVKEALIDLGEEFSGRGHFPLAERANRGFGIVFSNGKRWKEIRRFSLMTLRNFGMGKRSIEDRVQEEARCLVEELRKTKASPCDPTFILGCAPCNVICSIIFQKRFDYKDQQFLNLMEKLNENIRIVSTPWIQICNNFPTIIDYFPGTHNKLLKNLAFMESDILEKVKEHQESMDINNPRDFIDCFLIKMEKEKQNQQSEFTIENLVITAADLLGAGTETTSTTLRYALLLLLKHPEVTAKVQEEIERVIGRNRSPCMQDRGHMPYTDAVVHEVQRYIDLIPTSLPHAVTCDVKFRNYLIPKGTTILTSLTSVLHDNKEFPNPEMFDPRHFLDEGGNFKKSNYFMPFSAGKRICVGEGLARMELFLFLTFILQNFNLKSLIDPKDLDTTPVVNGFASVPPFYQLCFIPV
Sequence of Cytochrome P450 2C9 (P11712 whole entry): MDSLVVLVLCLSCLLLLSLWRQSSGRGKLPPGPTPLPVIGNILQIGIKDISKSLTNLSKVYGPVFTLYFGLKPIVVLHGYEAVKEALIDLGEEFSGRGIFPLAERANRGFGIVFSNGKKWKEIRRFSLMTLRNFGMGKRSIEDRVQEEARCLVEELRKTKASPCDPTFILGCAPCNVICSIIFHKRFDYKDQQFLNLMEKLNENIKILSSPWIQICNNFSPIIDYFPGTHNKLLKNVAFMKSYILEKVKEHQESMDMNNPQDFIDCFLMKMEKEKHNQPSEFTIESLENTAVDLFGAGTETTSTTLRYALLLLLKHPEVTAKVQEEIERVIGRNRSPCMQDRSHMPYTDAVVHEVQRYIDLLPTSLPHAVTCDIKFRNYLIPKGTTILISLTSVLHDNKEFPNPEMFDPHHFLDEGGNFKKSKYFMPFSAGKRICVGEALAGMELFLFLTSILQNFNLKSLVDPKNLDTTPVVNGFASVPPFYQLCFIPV
T2 sequence (P08684 whole entry): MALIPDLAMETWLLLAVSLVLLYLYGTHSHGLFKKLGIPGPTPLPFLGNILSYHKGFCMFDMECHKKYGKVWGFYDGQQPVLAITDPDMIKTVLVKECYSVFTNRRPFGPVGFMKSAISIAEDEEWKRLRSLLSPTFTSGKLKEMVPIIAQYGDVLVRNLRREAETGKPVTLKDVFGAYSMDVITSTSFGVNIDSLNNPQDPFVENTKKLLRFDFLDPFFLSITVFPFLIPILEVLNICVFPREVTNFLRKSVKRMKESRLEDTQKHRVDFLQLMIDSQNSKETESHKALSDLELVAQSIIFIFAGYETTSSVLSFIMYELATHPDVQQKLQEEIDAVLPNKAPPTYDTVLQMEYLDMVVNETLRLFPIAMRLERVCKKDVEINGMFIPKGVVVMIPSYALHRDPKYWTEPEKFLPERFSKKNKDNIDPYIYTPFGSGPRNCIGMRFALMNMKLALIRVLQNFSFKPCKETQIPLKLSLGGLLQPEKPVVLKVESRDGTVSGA

Row | SMILES | AUC [1] [µM·h] | bioavailability [2] [%] | clearance [3] [mL/min/kg] | IC50 (Cytochrome P450 2C19) [nM] | Activity (Rattus norvegicus [4]) | IC50 (Cytochrome P450 2C9) [nM] | Activity (Rattus norvegicus [5]) | Activity (Rattus norvegicus [6]) | IC50 (Cytochrome P450 2D6 [7]) [nM] | AUC [8] [µM·h] | Kd [10] [nM] | IC50 [11] [nM] | inhibition in vivo at 30 mg/kg [12] [%] | IC50 (Cytochrome P450 1A2 [14]) [nM] | other results
1 | CN1C(C)(C)CC(Oc2ccc(C(=O)Nc3ccc(NC(=O)Nc4cc(C(C)(C)C)on4)cc3)nc2)CC1(C)C | 9.1 | 31.5 | 10.9 | > 40000 | Toxic | > 40000 | Non-toxic | Toxic | > 40000 | 65.8 | 1.1 | 8 | 82 | > 40000 | IC50 (Cytochrome P450 3A4 [9]): > 40000 nM; inhibition in vivo at 100 mg/kg [13]: 92%; Activity (Rattus norvegicus [15]): Toxic
2 | CCN1C(C)(C)CC(Oc2ccc(C(=O)Nc3ccc(NC(=O)Nc4cc(C(C)(C)C)on4)cc3)nc2)CC1(C)C | 10 | 44 | 14 | > 40000 | Non-toxic | > 40000 | Non-toxic | Toxic | > 40000 | 56.4 | 1 | 1.2 | 79 | > 40000 | Activity (Mus musculus [16]): Non-toxic; Activity (Mus musculus [17]): Non-toxic; IC50 [18]: 2 nM; Activity (Cytochrome P450 3A4 [19]): Not Active; IC50 [20]: 10.5 nM; Activity (Cytochrome P450 1A2 [21]): Not Active; IC50 [22]: 7.7 nM; Kd [23]: 0.5 nM; Activity (Cytochrome P450 2D6 [24]): Not Active; Kd [25]: 1.57 nM; inhibition in vivo at 3 mg/kg [26]: 29%; Kd [27]: 1.3 nM; inhibition in vivo at 10 mg/kg [28]: 54%; Kd [29]: 1 nM

The next lines start with results.

Row | AUC [1] [µM·h] | bioavailability [2] [%] | clearance [3] [mL/min/kg] | SMILES | IC50 (Cytochrome P450 2C19) [nM] | Activity (Rattus norvegicus [4]) | IC50 (Cytochrome P450 2C9) [nM] | Activity (Rattus norvegicus [5]) | Activity (Rattus norvegicus [6]) | IC50 (Cytochrome P450 2D6 [7]) [nM] | AUC [8] [µM·h] | Kd [10] [nM] | IC50 [11] [nM] | inhibition in vivo at 30 mg/kg [12] [%] | IC50 (Cytochrome P450 1A2 [14]) [nM] | other results
3 | 9.5 | 36 | 12 | CC(C)(C)c1cc(NC(=O)Nc2ccc(NC(=O)c3ccc(OC4CCN(C5CC5)CC4)cn3)cc2)no1 |  |  |  |  |  |  |  |  |  |  |  | 
4 | 0.5 | 4 | 37.9 | Cc1ccnc(C(=O)Nc2ccc(NC(=O)Nc3cc(C(C)(C)C)on3)cc2)c1 |  |  |  |  |  |  |  |  |  |  |  | 
5 | 2.4 | 8 | 11 | CC1(C)CC(Oc2ccc(C(=O)Nc3ccc(NC(=O)Nc4cc(C(C)(C)C)on4)cc3)nc2)CC(C)(C)N1 |  |  |  |  |  |  |  |  |  |  |  | 

Reference: ChEMBL document CHEMBL2203000, “Discovery of AC710, a Globally Selective Inhibitor of Platelet-Derived Growth Factor Receptor-Family Kinases” (ACS Med Chem Lett, 2012)
